According to patent publication US5660613A, “Anaerobic/aerobic decontamination of DDT contaminated soil by repeated anaerobic/aerobic treatments” (Zeneca Corp., priority 1995, dated 1997):

Tests used:
[1] = Fate of radiolabelled DDT in the soil system, aerobic / anaerobic / anaerobic then aerobic incubation (Table 1); conditions: for % DDE (% remaining after tests) / % Other (% remaining after tests) / % DDD (% remaining after tests): from radiolabelled DDT; for % DDT (% remaining after tests): Triton X-100 500 ppm, 80640 min
Text: This example compares the repeated anaerobic/aerobic sequence treatment method of the present invention with single anaerobic treatment and single aerobic treatment in the degradation of DDT in a soil system.
The soil in this example contains populations of >10^5 cfu/g viable aerobic and anaerobic microbes capable of rendering DDT-type contaminants harmless and being viable under both anaerobic and aerobic conditions. This soil contains DDT (200 ppm), DDD (22 ppm) and DDE (18 ppm).
Six 20 g samples of soil are each mixed with 25 ml of water containing 500 ppm each of cysteine and sulphite reducing agents and 500 ppm of "Triton"-X-100. To these slurries are added 1 ppm of radiolabelled 4,4'-DDT-ring UL C^14 in hexane. Two 20 g samples are incubated anaerobically (in 50-ml polypropylene tubes at 35° C., stationary);two 20 g samples are incubated aerobically (in rotating jars with foam plugs at 35° C., 150 rpm); and two 20 g samples are incubated on a 2 week anaerobic/2 week aerobic cycle for a total of 8 weeks.
Redox potential is monitored. After the aerobic phase redox is greater than +100 mV and after the anaerobic incubation redox potential is less than -200 mV.
The incubation samples are extracted, and the fate of the radiolabelled DDT is determined by thin layer chromatography and autoradiography/densitometry. The experiments are repeated to obtain average results.

[2] = Fate of radiolabelled DDT in the soil system with different surfactants, anaerobic/aerobic sequence (Table 2); conditions: anaerobic/aerobic cycles, 35° C.; for % DDE (% remaining after tests) / % Other (% remaining after tests) / % DDD (% remaining after tests): from radiolabelled DDT; for % DDT (% remaining after tests): 80640 min
Description: The soil to be remediated contains populations of >10^5 cfu/g of viable aerobic and anaerobic microbes capable of rendering DDT-type contaminants harmless and being viable under both anaerobic and aerobic conditions. This soil contains DDT (200 ppm), DDD (22 ppm) and DDE (18 ppm). Six twenty gram samples of soil are added to 50-ml polypropylene tubes with 25 ml of water containing 500 ppm each of cysteine and sulphite reducing agents. This creates a supersaturated anaerobic degradation zone immersed in water. To each slurry sample is added 500 ppm of different surfactants and 1 ppm of radiolabelled 4,4'-DDT ring UL C^14 in hexane.
The tubes are capped and incubated stationary for 2 weeks at 35° C. After 2 weeks the tubes are opened and the contents are each transferred to a foam-capped jar and aerated by rotary incubation (150 rpm), for a further 2 weeks at 35° C. The anaerobic/aerobic cycle is repeated 2 times.
The samples are then extracted and the fate of the radiolabelled DDT is determined by thin layer chromatography and autoradiography/densitometry. The experiments are replicated to obtain average results.

[3] = Pilot scale anaerobic/aerobic cycling of DDT-contaminated soil (immersion), solvent extraction and GC ECD analysis; conditions: after 16 weeks; one month immersed/drained cycles; 22° C. to 28° C.; initial DDT 728, DDD 87, DDE 50 ppm; 161280 min
Description: Three-quarters of a ton of soil that contains DDT (728 ppm), DDD (87 ppm) and DDE (50 ppm) is placed in an enclosed degradation zone box 8 foot by 8 foot by 18 inches. It is alternately immersed in water and drained on one month cycles. Sodium acetate nutrient (500 ppm) is added as required to maintain the COD above 300 mg/L, and a mixture of "Triton" X-100 and "DAWN" nonionic surfactants is added as required to maintain the surface tension in the leachate below 70 dynes/cm. The material is cultivated by hand weekly to aerate the degradation zone and render it aerobic during the drained phase. During the treatment, the temperature ranges from 22° C. to 28° C. The redox potential level in the treatment zone stays below negative 200 mV while immersed in water and above positive 100 mV while drained. While drained the water content of the soil is in the range of 40-100% WHC.
After 16 weeks 72% of the DDT, 31% of the DDD and 54% of the DDE is degraded, as measured by solvent extraction and GC ECD analysis.

[4] = Large scale anaerobic/aerobic repeated sequence, biopile technique; conditions: after 16 weeks of cycling, weekly air on/off, 22° C. to 28° C., initial DDT 728, DDD 87, DDE 50 ppm, 161280 min
Text: Eight tons of soil containing DDT (728 ppm), DDD (87 ppm) and DDE (50 ppm) is placed in an enclosed degradation zone box 8 foot by 8 foot by 8 feet. The soil is amended with 5% straw nutrient. Water is continuously dripped onto the surface of the soil to supersaturate, and the leachate is collected at the bottom and recycled at a rate of 20 to 100 L/tonne/day. Oxygenation is accomplished by passing air through a mechanical distribution system in the soil at the rate of 44 L/tonne/day, weekly alternating the air on and off. The temperatures of the soil during treatment range from 22° C. to 28° C. The redox potential level in the treatment zone stays below negative 200 mV when aeration is off and above positive 100 mV when aeration is on.
Sodium acetate nutrient is added as required to boost the COD to above 300 mg/L, and maintain population counts above 10^5 cfu/g, of anaerobic and aerobic bacteria; and surfactants (a mixture of "Triton" X-100 and "DAWN") is added as required to maintain surface tension below 70 dynes/cm measured in the leachate, which is recycled.

[5] = Aerobic, 35° C., 150 rpm, 8 weeks
[6] = Anaerobic then Aerobic, 2 week/2 week cycle, total 8 weeks
[7] = Anaerobic, 35° C., stationary, 8 weeks

Structure (SMILES): ClC(Cl)=C(c1ccc(Cl)cc1)c1ccc(Cl)cc1 [DDE, 2,2-bis(p-chlorophenyl)1,1-dichloroethylene]
- % DDE (% remaining after tests) [1, 5]: 2%
- % DDE (% remaining after tests) [1, 6]: trace
- % DDE (% remaining after tests) [1, 7]: 0%
- % DDE (% remaining after tests) ([2]; "Dawn" 500 ppm): trace
- % DDE (% remaining after tests) ([2]; "Triton" X-100 500 ppm): trace
- % DDE (% remaining after tests) ([2]; No Surfactant): 0%
- % degraded [3]: 54%
- % degraded [4]: 54%

Structure (SMILES): Clc1ccc(C(c2ccc(Cl)cc2)C(Cl)(Cl)Cl)cc1 [DDT, 1,1,1-trichloro-2,2-bis(p-chlorophenyl)ethane]
- % DDT (% remaining after tests) [1, 5]: 80%
- % Other (% remaining after tests) [1, 5]: 1%
- % DDT (% remaining after tests) [1, 6]: 10%
- % Other (% remaining after tests) [1, 6]: 30%
- % DDT (% remaining after tests) [1, 7]: 60%
- % Other (% remaining after tests) [1, 7]: 10%
- % DDT (% remaining after tests) ([2]; "Dawn" 500 ppm): 10%
- % Other (% remaining after tests) ([2]; "Dawn" 500 ppm): 15%
- % DDT (% remaining after tests) ([2]; "Triton" X-100 500 ppm): 0%
- % Other (% remaining after tests) ([2]; "Triton" X-100 500 ppm): 60%
- % DDT (% remaining after tests) ([2]; No Surfactant): 85%
- % Other (% remaining after tests) ([2]; No Surfactant): 0%
- % degraded [3]: 72%
- % degraded [4]: 53%

Structure (SMILES): Clc1ccc(C(c2ccc(Cl)cc2)C(Cl)Cl)cc1 [DDD, 1,1,dichloro-2,2-bis(p-chlorophenyl)ethane]
- % DDD (% remaining after tests) [1, 5]: 17%
- % DDD (% remaining after tests) [1, 6]: 60%
- % DDD (% remaining after tests) [1, 7]: 30%
- % DDD (% remaining after tests) ([2]; "Dawn" 500 ppm): 75%
- % DDD (% remaining after tests) ([2]; "Triton" X-100 500 ppm): 40%
- % DDD (% remaining after tests) ([2]; No Surfactant): 15%
- % degraded [3]: 31%
- % degraded [4]: 55%
